Assay results taken from ChEMBL document CHEMBL1130997, “A 3D-QSAR study on ginkgolides and their analogues with comparative molecular field analysis” (Bioorg Med Chem Lett, 1998).

Assays:
[1] = target: T1, Platelet-activating factor receptor (Homo sapiens, UniProt P25105); assay: Binding affinity against platelet activating factor
[2] = target: T1, Platelet-activating factor receptor; assay: Compound was evaluated for anti-platelet activating factor potency

T1 sequence (P25105 whole entry): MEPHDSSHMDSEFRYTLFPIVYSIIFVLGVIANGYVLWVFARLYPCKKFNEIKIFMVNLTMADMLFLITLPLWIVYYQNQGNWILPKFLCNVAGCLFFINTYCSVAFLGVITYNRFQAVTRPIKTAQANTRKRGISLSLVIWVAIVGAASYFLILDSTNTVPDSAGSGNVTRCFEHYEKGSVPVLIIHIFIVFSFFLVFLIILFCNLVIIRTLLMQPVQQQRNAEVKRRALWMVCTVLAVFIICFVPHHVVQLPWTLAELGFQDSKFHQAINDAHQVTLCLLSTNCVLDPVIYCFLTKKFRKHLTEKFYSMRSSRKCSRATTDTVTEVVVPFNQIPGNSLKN

Binding affinity [1] [µM]	IC50 [2] [nM]	SMILES
13		CC(=O)O[C@H]1C(=O)OC[C@@]12C13CCC[C@]14O[C@@]2(C(C)(C)C)C[C@H]3OC4=O
0.3		COCO[C@@H]1C(=O)OCC12C13[C@H]4C[C@@]2(C(C)(C)C)O[C@]1(C[C@@H](Cl)[C@@H]3Cl)C(=O)O4 (stereo partly drawn)
76		CC(C)(C)[C@]12C[C@H]3OC(=O)[C@@]4(CCCC34[C@@]13COC(=O)[C@@H]3O)O2
9.4		COCO[C@H]1C(=O)OC[C@@]12C13CCC[C@]14O[C@@]2(C(C)(C)C)C[C@H]3OC4=O
13		CC(C)(C)[C@@]12C[C@H]3OC(=O)[C@@]4(CCCC34C13COC(=O)[C@H]3O)O2 (stereo partly drawn)
38		CC(C)(C)[C@]12C[C@H]3OC(=O)[C@@]4(C[C@@H](Cl)[C@H](Cl)C34[C@@]13COC(=O)[C@@H]3O)O2
18		CC(C)(C)[C@@]12C[C@H]3OC(=O)[C@@]4(CCCC34C13COC(=O)C3=O)O2 (stereo partly drawn)
21		COCO[C@@H]1C(=O)O[C@H]2O[C@@]34CCCC35[C@@H](C[C@@H](C(C)(C)C)[C@@]215)OC4=O (stereo partly drawn)
0.3		COCO[C@@H]1C(=O)OCC12C13[C@H]4C[C@@]2(C(C)(C)C)O[C@]1(C[C@@H](Cl)[C@@H]3OCOC)C(=O)O4 (stereo partly drawn)
1.1		CC(C)(C)[C@@]12C[C@H]3OC(=O)[C@@]4(C[C@@H](Cl)[C@H](Cl)C34C13COC(=O)[C@H]3O)O2 (stereo partly drawn)
11		CC(=O)O[C@@H]1C(=O)O[C@H]2O[C@@]34CCCC35[C@@H](C[C@@H](C(C)(C)C)C215)OC4=O (stereo partly drawn)
1.1		CC(C)(C)[C@@]12C[C@H]3OC(=O)[C@@]4(C[C@@H](Cl)CC34C13COC(=O)[C@H]3O)O2 (stereo partly drawn)

Continued, molecule first:

SMILES	Binding affinity [1] [µM]	IC50 [2] [nM]
CC1C(=O)O[C@H]2[C@H](O)C34[C@H]5C[C@@H](C(C)(C)C)[C@]36[C@@H](OC(=O)[C@@H]6OCOCc3ccccc3)O[C@@]4(C(=O)O5)[C@@]12O (stereo partly drawn)		40.4
C[C@@H]1C(=O)O[C@H]2[C@H](O)[C@@]34[C@H]5C[C@@H](C(C)(C)C)[C@]36[C@@H](OC(=O)[C@@H]6O)O[C@@]4(C(=O)O5)[C@@]12O [GINKOLIDE B]	0.6	128
C[C@@H]1C(=O)O[C@H]2CC34[C@H]5C[C@@H](C(C)(C)C)C36[C@@H](OC(=O)[C@@H]6O)O[C@@]4(C(=O)O5)[C@]21O (stereo partly drawn)	17.8	
C[C@@H]1C(=O)O[C@H]2[C@H](OCc3ccc(Cl)cc3)C34[C@H]5C[C@@H](C(C)(C)C)[C@]36[C@@H](OC(=O)[C@@H]6O)O[C@@]4(C(=O)O5)[C@@]12O (stereo partly drawn)		28.9
CC1(C)C[C@@]2(O)C(=O)O[C@H]3O[C@@]45CCCC46[C@@H](C[C@@H]1C362)OC5=O (stereo partly drawn)	9.2	
CC(C)(C)[C@@H]1C[C@H]2OC(=O)[C@]34C[C@@H](Cl)[C@H](Cl)C23[C@@]12[C@@H](OC(=O)[C@@H]2O)O4 (stereo partly drawn)	1.3	
C[C@@H]1C(=O)O[C@H]2[C@H](O)C34[C@H]5C[C@H]6C(C)(C)C[C@@]7(O)C(=O)O[C@@H](O[C@@]3(C(=O)O5)[C@@]12O)C647 (stereo partly drawn)	0.7	
COCO[C@@H]1C(=O)O[C@H]2O[C@@]34C[C@@H](Br)[C@H](OCOC)C35[C@@H](C[C@@H](C(C)(C)C)C215)OC4=O (stereo partly drawn)	0.6	
CO[C@H]1C[C@@]23[C@@H](O1)O[C@@]14CC=CC21[C@@H](C[C@H]3C(C)(C)C)OC4=O (stereo partly drawn)	120	
CC(C)(C)[C@@H]1C[C@H]2OC(=O)[C@]34CC=CC23[C@]12CC(=O)O[C@H]2O4 (stereo partly drawn)	80	
CC(C)(C)[C@@H]1C[C@H]2OC(=O)[C@@]34CC5OC6C[C@@]1([C@@H](O6)O3)[C@@]24C5Br (stereo partly drawn)	2.9	
C[C@@H]1C(=O)O[C@H]2[C@H](O)C34[C@@H]5OC(=O)[C@]3(O[C@@H]3OC(=O)[C@H](O)C34[C@H](C(C)(C)C)[C@H]5O)[C@@]12O (stereo partly drawn)	17	
C[C@@H]1C(=O)O[C@H]2[C@H](OCOCc3ccccc3)C34[C@H]5C[C@@H](C(C)(C)C)[C@]36[C@@H](OC(=O)[C@@H]6O)O[C@@]4(C(=O)O5)[C@@]12O (stereo partly drawn)		58.8
C[C@@H]1C(=O)O[C@H]2CC34[C@H]5C[C@@H](C(C)(C)C)C36C(=O)C(=O)O[C@H]6O[C@@]4(C(=O)O5)[C@]21O (stereo partly drawn)	3.9	
C[C@@H]1C(=O)O[C@H]2CC34[C@@H]5OC(=O)[C@]3(O[C@@H]3OC(=O)[C@H](O)C34[C@H](C(C)(C)C)[C@H]5O)[C@]21O (stereo partly drawn)	130	
